Assay results as given in patent publication US20240306646A1, “BROAD SPECTRUM PATHOGEN CONTROL IN PLANTS” (APHEA. BIO NV, priority 2021, published 2024).

Columns and labels:
Format in all cases: cell-based
Zymoseptoria tritici = test system: Zymoseptoria tritici
Fusarium graminearum = settings: in vitro
Puccinia striiformis = experiment: In vitro antifungal screening of strain extracts and fractions

In the case of Takanawaene C, the “growth inhibition, Zymospetoria tritici” value (Zymoseptoria tritici) is reported as 9% growth, the “growth inhibition, Fusarium graminearum” value (Fusarium graminearum) is reported as 100% growth and the “growth inhibition, Puccinia striiformis” value (Puccinia striiformis) is reported as 100% inhibition.
